Data taken from article PMC10419252, “Synthesis, Properties, and Biomedical Application of Dicationic Gemini Surfactants with Dodecane Spacer and Carbamate Fragments” (International Journal of Molecular Sciences, 2023).
Values joined by “and” are separate entries in the source; they are usually repeats but may differ in a detail not shown here. Equal values may be shown once. Read-outs that look alike come from different tables or passages of the source.

Columns and labels:
[1] = test system: Bacillus cereus ATCC 10702 NCTC 8035; assay: Antimicrobial activity (Bc); assay type: cell-based
Protocol: (§1) The antimicrobial activity of the compounds was tested on Gram-positive Staphylococcus aureus ATCC 6538P FDA 209P (Sa), Bacillus cereus ATCC 10702 NCTC 8035 (Bc), Enterococcus faecalis ATCC 29212 (Ef), and Gram-negative bacteria Escherichia coli ATCC 25922 (Ec), Pseudomonas aeruginosa ATCC 9027 (Pa), including methicillin-resistant strains of S. aureus MRSA-1 (resistant to fluoroquinolones and beta-lactams) and MRSA-2 (resistant to beta-lactams). Antifungal activity was studied against Candida albicans ATCC 10231 (Ca), Trichophyton mentagrophytes var. gypseum 1773 (Tm), and Aspergillus niger BKMF-1119 (An). A more detailed description of the experiment is published in [21].

[2] = test system: Pseudomonas aeruginosa ATCC 9027; assay: Antimicrobial activity (Pa); assay type: cell-based
Protocol: as §1

Pyrene fluorimetry = assay type: physicochemical; settings: 298 K
Protocol: To determine cmc by fluorimetry, a hydrophobic probe pyrene was added to a series of surfactant solutions at a concentration of 1 μM. The solutions were kept for 30–40 min for complete solubilization of the probe. The fluorescent emission spectra of pyrene were recorded on an F-7100 fluorimeter (Hitachi, Tokyo, Japan) using 10 × 4 mm quartz cuvette (Hellma Analytics, Müllheim, Germany) with the following settings: λex = 335 nm, λem = 350–600 nm, and scanning speed = 1200 nm/min. The cmc was calculated from the dependence of the pyrene polarity index (the ratio of the intensities of the first (373 nm) and third (383 nm) peaks) on the surfactant concentration.

[3] = test system: Aspergillus niger BKMF-1119; assay: Antifungal activity (An); assay type: cell-based
Protocol: as §1

[4] = test system: Enterococcus faecalis ATCC 29212; assay: Antimicrobial activity (Ef); assay type: cell-based
Protocol: as §1

[5] = Orange OT solubilization, spectrophotometry (Schott method for Nagg); assay type: physicochemical
Protocol: (§2) The cmc and the solubilizing capacity (S) of surfactants were determined using the spectral azo dye OOT and the non-steroidal anti-inflammatory drug IND. To obtain a saturated solution, an excess of OOT and IND was added to 2 mL of a surfactant solution, stirred, and kept for 48 and 24 h, respectively. After that, the solutions were filtered using Millex® Syringe Filters (Millipore, Burlington, MA, USA) with a pore size of 450 nm, and the optical density was measured. The absorption spectra were recorded on a Specord 250 Plus spectrophotometer (Analytik Jena AG, Jena, Germany). Quartz cells with a thickness of 1 and 0.5 cm (Hellma Analytics, Müllheim, Germany) were used for measurements.
(§3) The solubilizing capacity (S) was determined using the following formula:S = b/ε, where b is D/l = f (Csurf) dependency slope (above cmc), ε is the extinction coefficient (17,400 L/mol∙cm for OOT, and the extinction coefficients of IND are determined in GS solutions and presented in Figure S10).
The OOT solubilization method (Schott method) was used to calculate the micelle Nagg. The Nagg values were calculated for each point on the curve of dependence of the OOT-reduced optical density on the surfactant concentration above the cmc according to the presented formula:[…], where ε is the extinction coefficient of OOT, Csurf is the surfactant concentration above cmc, and D is the optical density.

[6] = target: T1, human butyrylcholinesterase (hBChE) (Homo sapiens, UniProt P06276); assay: In vitro cholinesterase inhibition, Ellman's method (hBChE); assay type: biochemical
T1 construct: purchased Sigma-Aldrich
T1 sequence (P06276 29-602): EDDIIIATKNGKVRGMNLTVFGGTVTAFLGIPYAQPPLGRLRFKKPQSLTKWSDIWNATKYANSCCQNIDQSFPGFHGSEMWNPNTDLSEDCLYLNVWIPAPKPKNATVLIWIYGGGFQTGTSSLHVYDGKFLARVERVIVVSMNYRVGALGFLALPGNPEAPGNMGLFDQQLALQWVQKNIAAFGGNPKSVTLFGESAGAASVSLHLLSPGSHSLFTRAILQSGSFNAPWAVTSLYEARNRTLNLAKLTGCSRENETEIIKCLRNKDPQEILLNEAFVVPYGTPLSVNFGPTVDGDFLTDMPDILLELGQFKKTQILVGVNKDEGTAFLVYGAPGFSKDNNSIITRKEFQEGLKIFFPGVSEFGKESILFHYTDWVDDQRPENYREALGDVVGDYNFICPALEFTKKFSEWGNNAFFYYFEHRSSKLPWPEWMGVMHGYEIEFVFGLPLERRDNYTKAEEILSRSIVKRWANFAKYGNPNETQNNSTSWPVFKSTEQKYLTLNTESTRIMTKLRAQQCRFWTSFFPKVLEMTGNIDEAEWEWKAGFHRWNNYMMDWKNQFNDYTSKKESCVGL
Protocol: (§4) Stock solutions (0.01 M) of the compounds were dissolved in H2O. The inhibitory activity of compounds against hAChE and hBChE was measured using Ellman’s method. Enzyme-catalyzed hydrolysis was carried out in 0.1 M PBS (pH = 8.0) containing 0.1 nM hAChE or hBChE, 0.1 mM 5,5′-dithiobis-(2-nitrobenzoic acid) and 1mM acetylthiocholine or butyrylthiocholine as substrates. The tested compounds were incubated with the enzyme for 5 min prior to the addition of the substrate. Analyses were performed at 298 K using a Shimadzu UV-1800 spectrophotometer (Shimadzu Co., Kyoto, Japan) at 412 nm. The substrate hydrolysis rate was measured within 2 min. A sample without inhibitor was used as a control (100% cholinesterase activity). A sample without substrate was used as a blank. The experiments were conducted in triplicate. The percentage of enzyme inhibition was determined using OriginPro 8.5 software (OriginLab Corporation, Northampton, MA, USA) by plotting a percentage of the inhibition versus compound concentration. IC50 values (inhibitor concentration required to inhibit enzyme activity by 50%) were determined by the Hill equation: E/Emax=[I]^n/IC50n+[I]^n, where E is enzyme activity in the presence of the compound, and [I] is the compound concentration.

[7] = test system: methicillin-resistant S. aureus MRSA-2 (resistant to beta-lactams); assay: Antimicrobial activity (MRSA-2); assay type: cell-based
Protocol: as §1

[8] = test system: Candida albicans ATCC 10231; assay: Antifungal activity (Ca); assay type: cell-based
Protocol: as §1

[9] = test system: Trichophyton mentagrophytes var. gypseum 1773; assay: Antifungal activity (Tm); assay type: cell-based
Protocol: as §1

[10] = Tensiometry (Du Nouy ring), surface tension isotherms; assay type: physicochemical
Protocol: The surface tension isotherms of the micellar solutions were determined using the Du Nouy platinum ring detachment method on a K6 tensiometer (KRŰSS GmbH, Hamburg, Germany). For the experiment, surfactant solutions with a volume of 10 mL were prepared. The measurements were carried out strictly at 298 K in glass beakers, the diameter of which exceeded the diameter of the platinum ring. Surface tension measurements were carried out until stable values were obtained. After each measurement, the ring was degreased in ethanol and thoroughly dried. The cmc of the micellar solutions was determined from the breakpoint on the isotherm of surface tension versus surfactant concentration. The thermodynamic parameters of adsorption and micellization were calculated for all systems based on the obtained tensiometric curves.

[11] = test system: methicillin-resistant S. aureus MRSA-1 (resistant to fluoroquinolones and beta-lactams); assay: Antimicrobial activity (MRSA-1); assay type: cell-based
Protocol: as §1

[12] = target: T2, human acetylcholinesterase (hAChE) (Homo sapiens, UniProt P22303); assay: biochemical
T2 construct: purchased Sigma-Aldrich
T2 sequence (P22303 32-614): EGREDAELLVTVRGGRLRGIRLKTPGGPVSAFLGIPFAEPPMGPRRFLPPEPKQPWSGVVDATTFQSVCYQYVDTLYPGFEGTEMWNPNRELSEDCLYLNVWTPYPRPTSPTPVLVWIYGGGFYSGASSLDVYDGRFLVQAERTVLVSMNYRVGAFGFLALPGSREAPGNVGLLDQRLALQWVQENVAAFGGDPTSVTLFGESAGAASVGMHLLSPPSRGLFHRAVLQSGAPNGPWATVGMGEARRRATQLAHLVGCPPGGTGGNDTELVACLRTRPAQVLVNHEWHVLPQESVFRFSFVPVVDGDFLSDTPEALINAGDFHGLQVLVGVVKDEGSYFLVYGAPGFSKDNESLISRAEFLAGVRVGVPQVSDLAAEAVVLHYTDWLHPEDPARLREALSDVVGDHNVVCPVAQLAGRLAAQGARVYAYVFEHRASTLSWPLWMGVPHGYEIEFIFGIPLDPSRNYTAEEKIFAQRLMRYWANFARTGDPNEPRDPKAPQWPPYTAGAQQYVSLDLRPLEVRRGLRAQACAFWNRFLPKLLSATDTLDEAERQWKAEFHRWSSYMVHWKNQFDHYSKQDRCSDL
Protocol: as §4

[13] = Indomethacin solubilization, spectrophotometry; assay type: physicochemical; settings: 298 K
Protocol: as §2, §3

[14] = test system: Staphylococcus aureus ATCC 6538P FDA 209P; assay: Antimicrobial activity (Sa); assay type: cell-based
Protocol: as §1

[15] = test system: Escherichia coli ATCC 25922; assay: Antimicrobial activity (Ec); assay type: cell-based
Protocol: as §1

Conductometry = assay type: physicochemical; settings: 298 K
Protocol: The electrical conductivity of the micellar solutions was determined on an InoLab Cond 7110 conductometer (WTW, Weilheim, Germany). For the experiment, surfactant solutions with a volume of 10 mL were prepared. The electrical conductivity of all solutions was recorded at 298 K, and the electrode was washed with purified water after each measurement. The cmc was determined from the breakpoint of the dependence of electrical conductivity on the concentration of surfactants.

CCCCCCCCCC[N+](C)(CCCCCCCCCCCC[N+](C)(CCCCCCCCCC)CCOC(=O)NCC)CCOC(=O)NCC (stereo not drawn) [10-12-10(Et)]
MBC, Bc [1]: 0.5 ± 0.03 µg/mL
MIC, Bc [1]: 0.5 ± 0.04 µg/mL
MBC, Pa [2]: 3.9 ± 0.3 µg/mL
MIC, Pa [2]: 1.9 ± 0.1 µg/mL
cmc, Fluorimetry (Pyrene fluorimetry): 0.9 mM and 0.9 ± 0.03 mM
MFC, An [3]: >250 µg/mL
MIC, An [3]: 250 ± 19 µg/mL
MBC, Ef [4]: 0.5 ± 0.04 µg/mL
MIC, Ef [4]: 0.5 ± 0.03 µg/mL
S (solubilizing capacity), OOT [5]: 0.021 molOOT/molGS
S (solubilizing capacity), OOT ([5]; 298 K): 0.021 molprobe/molGS
cmc, Spectrophotometry ([5]; OOT, 298 K): 1.5 ± 0.1 mM
Nagg (aggregation number) ([5]; Schott approach, OOT solubilization, 298 K): 50
IC50 [6]: 19 ± 5 nM
MBC, MRSA-2 [7]: 3.9 ± 0.3 µg/mL
MIC, MRSA-2 [7]: 0.5 µg/mL and 0.5 ± 0.03 µg/mL
MFC, Ca [8]: 15.6 ± 1.2 µg/mL
MIC, Ca [8]: 0.9 ± 0.07 µg/mL
MFC, Tm [9]: 15.6 ± 1.3 µg/mL
MIC, Tm [9]: 0.9 ± 0.07 µg/mL
Amin (surface area per surfactant molecule) ([10]; 298 K): 2.34 nm^2
Гmax∙10^6 (maximum surface excess) ([10]; 298 K): 0.71 mol∙m^−2
∆Gmic (free energy of micellization) ([10]; 298 K): -25.5 kJ/mol
calculated adsorption layer thickness ([10]; air/water interface): 0.7 nm
cmctens ([10]; tensiometry, 298 K): 1 mM and 1 ± 0.03 mM
MBC, MRSA-1 [11]: 1.9 ± 0.1 µg/mL
MIC, MRSA-1 [11]: 0.5 µg/mL and 0.5 ± 0.03 µg/mL
IC50 [12]: 43.1 ± 0.9 nM
SIhBChE/hAChE (selectivity index) ([12]; IC50 hBChE / IC50 hAChE): 0.44
S (solubilizing capacity), IND [13]: 0.13 molprobe/molGS
MBC, Sa [14]: 0.5 ± 0.04 µg/mL
MIC, Sa [14]: 0.5 ± 0.03 µg/mL
MBC, Ec [15]: 0.5 ± 0.03 µg/mL
MIC, Ec [15]: 0.5 ± 0.03 µg/mL
cmccond (Conductometry): 1.5 mM and 1.5 ± 0.04 mM
βcond (degree of counterion binding) (Conductometry): 0.41
